# Legend:
# Type in all cases: cell-based, mouse
# C2C12 cells [1] = assay: BrdU cell proliferation assay (plate and slide); details: for Effect of inhibitor on IGF-I induced proliferation: C2C12 BrdU plate assay, IGF-I 10 nM, PD 50 µM, NVP 100 nM
# Experimental: Proliferation was measured using a 5-bromo-2P-deoxyuridine (BrdU) plate and slide assays (Roche, Indianapolis, IN). For the plate assay, 5×10^3 C2C12 cells were seeded in 96-well plates. Cells were starved for 6 hours, and treated with synthetic E-peptides or recombinant IGF-I overnight. BrdU was added for incorporation for 2 hours before cell lysis and BrdU staining. For MAPK inhibition, a MEK inhibitor was added to the media (PD 098059, Sigma, 50 µM). For IGF-IR inhibition, 100 nM NVPAEW541 was added to the media. The slide assay was done as above, except with 2×10^4 C2C12 cells in 24-well plates on glass cover slips. Cells were stained with an antibody to BrdU and with DAPI (VectorLabs, Burlingame, CA) to visualize nuclei. Images were acquired using a Leica DMR epifluorescence microscope using OpenLab imaging software (Improvision, PerkinElmer, Waltham, MA).
# [2] = tested on: ERK1/2 phosphorylation (MAPK signaling) in C2C12 cells; assay: ERK1/2 phosphorylation immunoblot after synthetic E-peptide treatment
# Experimental: (§1) C2C12 (ATCC, Manassas, VA) cells were maintained in growth media (DMEM containing, 10% fetal bovine serum, and gentamicin). For signaling experiments, 2×10^4 cells were seeded in 6-well plates in growth media and allowed to attach and grow overnight. The next day, cells were starved overnight in growth media without serum. On the third day, cells were treated with synthetic E-peptides and/or recombinant human IGF-I (Gemini Bio-Products West Sacramento, CA) for the time periods indicated in figures, and the cells were processed for immunoblotting as described below. For IGF-IR inhibition, 100 nM NVPAEW541 [47] diluted in DMSO or DMSO only was added to starved cells 90 minutes before and during treatment with synthetic peptides.
# (§2) Signaling pathway activation was determined by immunoblotting.
# C2C12 cells [3] = assay: Transwell cell migration assay; details: C2C12 trans-well, 5 hours, PD 50 µM, NVP 100 nM; for Effect of inhibitor on EB induced migration: EB 100 nM
# Experimental: E-peptide effects on cell migration were tested using a 24-well Transwell (8.0 µm pore size) plate assay (Corning Inc., Lowell, MA). C2C12 cells (2×10^4) were seeded in the upper chambers in serum-free media, and synthetic E-peptides in serum-free media were placed in the bottom chambers. Cells were allowed to migrate for 5 hours. Non-migrated cells remaining in the upper chamber were removed from the transwell membranes with Q-tips and migrated cells were fixed with 4% formaldehyde and stained with DAPI. The transwell membranes were mounted onto slides, and imaged at 10× using above-mentioned microscopy and analysis software. For MAPK signaling or IGF-IR inhibition, PD (50 µM) or NVP (100 nM) was added to both chambers at the start of the experiment.
# [4] = tested on: Akt phosphorylation in C2C12 cells; assay: Akt phosphorylation immunoblot; details: C2C12, 20 min; EA 1 µM, EB 10 nM, IGF-I 10 nM
# Experimental: as §1, §2
Molecule,Effect of inhibitor on IGF-I induced proliferation (C2C12 cells [1]),"Effect of IGF-IR inhibitor on ERK1/2 phosphorylation in EA, EB and IGF-I treated cells ([2]; C2C12, NVP 100 nM 90 min before and during 20 min stimulation, EA 1 µM, EB 10 nM, IGF-I 10 nM, vs DMSO, N = 3)","Effect of IGF-IR inhibitor on ERK1/2 phosphorylation in NoTx cells ([2]; C2C12, NVP 100 nM vs DMSO, no stimulation)",Effect of inhibitor on EB induced migration (C2C12 cells [3]),Effect of inhibitor on cell migration in the absence of E-peptides (C2C12 cells [3]),"Proliferation by BrdU positivity on slides (in words) (C2C12 cells [1]; C2C12 on cover slips, EA and Scr 100 nM, EB and IGF 10 nM, N = 5 slides)","P-ERK1/2 response (in words), without inhibitor ([2]; C2C12, 20 min, EA 1 µM, EB 10 nM, IGF-I 10 nM, DMSO)",P-Akt response (in words) [4]
"Nc1ncnc2c1c(-c1cccc(OCc3ccccc3)c1)cn2[C@H]1C[C@@H](CN2CCC2)C1 [NVP, NVPAEW541]",significantly decreased IGF-I induced proliferation,significantly reduced the ERK1/2 phosphorylation,no change in ERK1/2 phosphorylation,significantly decreased EB induced migration,not affected,,,
"IGF-I: recombinant human IGF-I (Gemini Bio-Products), positive control",,,,,,increased C2C12 proliferation,increase in both P-Akt and P-ERK1/2,increase in both P-Akt and P-ERK1/2
"COc1cccc(-c2cc(=O)c3ccccc3o2)c1N [PD, PD 098059]",significantly decreased IGF-I induced proliferation,,,decrease in EB migration that did not reach significance,not affected,,,

# — article PMC3448668, “Insulin-Like Growth Factor-I E-Peptide Activity Is Dependent on the IGF-I Receptor” (PLoS ONE, 2012)
